From patent US11357780B2, “Methods and compositions relating to the inhibition of IP6K1” (THE CHILDREN'S MEDICAL CENTER CORPORATION, priority 2018, dated 2022)
Entries after “also recorded” stand apart in the source; their conditions may differ.

Experiments:
[1] = tested on: LPS-induced lung inflammation; test: LPS-induced lung inflammation in mice; assay type: in vivo, mouse; details: TNP-treated mice, 5 mg/kg LPS intratracheal, 24 hr
Experimental: Bacteria or LPS-induced acute pneumonia. After anesthesia with ketamine hydrochloride (100 mg/kg intraperitoneally (i.p.)) and xylazine (10 mg/kg i.p.), mouse tracheas were surgically exposed and a total volume of 40 μl of saline, a dose of 2×10^6 cfu of E. coli (strain 19138; American Type Culture Collection), a dose of 5×10^8 cfu of Stapyhlococcus aureus (strain 10390; American Type Culture Collection), or the indicated amount of LPS (LPS from E. coli O111:B4 or LPS from E. coli O157:H7; Sigma-Aldrich was instilled intratracheally via an angiocatheter inserted through the trachea and into the left bronchus. Colloidal carbon (1%) was included in the instillate to indicate deposition. […]
Neutrophil accumulation. […] The total number of cells in the BALF was counted by hemocytometry. […] The percentage of neutrophils in the whole population (% PMN) was determined accordingly. Total numbers of neutrophils (#PMN) recruited was calculated as follows: [#PMN]=[cell density]×volume×[% PMN]. Emigrated neutrophils in the alveolar air spaces were also quantified by morphometric analysis of tissue sections. Emigrated neutrophils in lung sections (5 mice/group) 24 h after infection were quantified using standard point-counting morphometry (7). […] At least three grids (300 points) were counted for each lung. […]

[2] = tested on: PtdIns(3,4,5)P3 signaling; test: PtdIns(3,4,5)P3 signaling in human neutrophils; assay type: cell-based; details: human neutrophils treated with TNP
E. coli = test: E. coli-induced bacterial pneumonia in mice; assay type: in vivo, mouse
Experimental: Bacteria or LPS-induced acute pneumonia. After anesthesia with ketamine hydrochloride (100 mg/kg intraperitoneally (i.p.)) and xylazine (10 mg/kg i.p.), mouse tracheas were surgically exposed and a total volume of 40 μl of saline, a dose of 2×10^6 cfu of E. coli (strain 19138; American Type Culture Collection), a dose of 5×10^8 cfu of Stapyhlococcus aureus (strain 10390; American Type Culture Collection), or the indicated amount of LPS (LPS from E. coli O111:B4 or LPS from E. coli O157:H7; Sigma-Aldrich was instilled intratracheally via an angiocatheter inserted through the trachea and into the left bronchus. Colloidal carbon (1%) was included in the instillate to indicate deposition. After surgery and wound closure, mice were suspended by their front legs to help deliver the instillate deep into the left lobe before being placed back into the cage with soft and warm bedding for recovery. Mice were euthanized by CO2 at each time point. For polyP treatment, Medium Chain Polyphosphate (p100) (Kerafast Inc) was injected intraperitoneally (50 μg/g body weight) 10 min after the instillation of LPS. For treatment with IP6K1 inhibitor TNP (N2-(m-(trifluoromethyl)benzyl) N6-(p-nitrobenzyl)purine), mice were injected intraperitoneally with TNP once a day (20 mg/kg body weight) for 10 days before the induction of lung inflammation. TNP (Tocris Bioscience) was dissolved in DMSO/Tween80/water (1/1/8) at a concentration of 2 mg/ml and was injected directly without dilution.
Neutrophil accumulation. WT and Ip6k1-KO mice were anesthetized and instilled with bacteria or LPS as described above. After 24 h, mice were euthanized by CO2. The chest cavity was opened and a catheter was tied to the trachea. Bronchoalveolar lavage (BAL) was performed (1 mL PBS/15 mM EDTA×10) in each group. The BAL fluid (BALF) was centrifuged at 450×g for 10 min. The total number of cells in the BALF was counted by hemocytometry. Differential cell counts were conducted on cytospin preparations stained with a modified Wright-Giemsa stain (Volu-Sol, Inc.). Neutrophils were identified by their lobular or segmented nuclei. The percentage of neutrophils in the whole population (% PMN) was determined accordingly. Total numbers of neutrophils (#PMN) recruited was calculated as follows: [#PMN]=[cell density]×volume×[% PMN]. Emigrated neutrophils in the alveolar air spaces were also quantified by morphometric analysis of tissue sections. Emigrated neutrophils in lung sections (5 mice/group) 24 h after infection were quantified using standard point-counting morphometry (7). Briefly, mice were euthanized and their hearts tied off to maintain pulmonary blood volume. Lungs were then excised and fixed by intratracheal instillation of Bouin's solution at a pressure of 23 cm H2O and embedded in paraffin. Five to 6 μm-thick sections were cut and stained with hematoxylin and eosin (H&E). Neutrophils could be easily recognized by their lobular or segmented nuclei under high magnification. A counting grid (10×10, covering 70,000 μm2 of the magnified field) was reflected onto the field of view using a drawing tube. Randomly selected fields of pneumonic peripheral lung largely free of non-capillary blood vessels and bronchioles or larger airways were examined. At least three grids (300 points) were counted for each lung. The relative volumes of the parenchymal regions occupied by emigrated neutrophils were calculated by investigators blinded to the identities of the mice and were expressed as a percentage of the total parenchymal region volume (including both tissue and air spaces).
BALF total protein levels and cytokine/chemokine levels. BALF samples were obtained from mice 24 h after E. coli challenge. BAL was performed with 1 ml cold PBS/15 mM EDTA flushed in and out three times. Protein concentrations were measured in BALF using the Bio-Rad protein assay reagent. A standard curve was constructed using BSA. […]

platelets = test: PolyP levels in platelets isolated from TNP-treated mice; assay type: in vivo, mouse; details: platelets from mice treated with TNP 20 mg/kg once a day for 10 days, vs DMSO-treated controls
Experimental: (§1) FIG. 6A: PolyP levels in platelets. Mice were treated with TNP or DMSO alone for 10 days (20 mg/kg body weight, once a day). The experiment was repeated three times and the data were pooled and analyzed together. Data shown are means±SEM (n=7 mice per group). FIG. 6B: LPS-induced polyP secretion in neutrophil-platelet co-cultures. Neutrophils (5×10^6) isolated from DMSO (N-DMSO) or TNP (N-TNP)-treated mice and platelets (1×10^9) isolated from DMSO (P-DMSO) or TNP (P-TNP)-treated mice were incubated in the presence of LPS (5 μg/mL) for 2 h at 37° C. Data shown are means±SEM of four experiments. FIG. 6C: LPS-induced NPA formation. Neutrophils and platelets were isolated from DMSO (untreated) and TNP-treated mice and incubated with LPS (1 μg/mL) for 2 h at 37° C. […] NPA formation was analyzed at 24 hr after the LPS instillation. […] FIG. 6H: Recruited neutrophils in alveolar spaces were quantified as volume fraction of the alveolar space using standard point-counting morphometry. […] FIG. 6I: Pulmonary edema formation was quantified as the percentage of edema area in the total parenchymal region using. […] FIG. 6J: Lung vascular permeability was evaluated by BALF total protein level. […] FIG. 6K: Lung wet weight-to-dry weight ratio was measured at 24 hr after E. coli instillation. […] NPA % was calculated as the percentage of CD66+, CD16+ and CD41 triple-positive cells (NPAs) among all CD66+ and CD16+ cells. […]

[3] = tested on: neutrophils and platelets; test: Ex vivo neutrophil-platelet aggregate (NPA) formation, FACS; assay type: cell-based, mouse
Experimental: Neutrophil-platelet aggregation. Mouse and human neutrophils were isolated and purified as previously described (31). Whole blood was collected into ACD tubes and platelet-rich plasma was isolated by centrifuging twice at 100×g for 5 min. Neutrophils (0.5×106) and platelets (5×106) were incubated for 2 h at 37° C. with LPS in 1 ml Tyrode's buffer (Sigma) supplemented with 1% BSA. After incubation, mouse neutrophils and platelets were stained with CD11b, CD41, and Ly6G and analyzed by flow cytometry to detect NPAs. Human neutrophils and platelets were stained with CD66, CD16, and CD41. NPA % was calculated as the percentage of CD66+, CD16+ and CD41 triple-positive cells (NPAs) among all CD66+ and CD16+ cells.
Flow cytometry. Murine neutrophils and platelets were incubated as described above. Cells were then harvested, washed with ice-cold PBS, and stained with APC0-CD11b (eBioscience), PE-CY7-Ly6G (BD Bioscience), FITC-CD41 (eBioscience), and […] to detect leukocyte and platelet antigens. Samples were examined with a FACSCanto II™ flow cytometer (Becton Dickinson). Neutrophils were gated by their forward- and side-scatter characteristics and by their Ly-6G+/CD11b+ (neutrophil) expression pattern (30). Platelets were detected by CD41 staining NPAs were Ly-6G+CD41+. All data were analyzed using FlowJo™ software (TreeStar; FlowJo LLC).

[4] = tested on: neutrophil-platelet co-cultures; test: LPS-induced polyP secretion in neutrophil-platelet co-cultures; assay type: cell-based, mouse; details: cells from TNP-treated mice, LPS 5 μg/mL, 2 h, 37° C., vs DMSO-treated controls
Experimental: as §1

human platelets = test: PolyP levels in human platelets; assay type: cell-based; details: TNP 20 μM, room temperature, 4 days
[5] = tested on: human primary neutrophils and platelets; test: NPA formation between human neutrophils and platelets; assay type: cell-based
Experimental: as §1

[6] = tested on: PtdIns(3,4,5)P3 signaling; test: PtdIns(3,4,5)P3 signaling (phospho-Akt western blot) in mouse neutrophils; assay type: cell-based
Experimental: Mice were treated with TNP for 10 days (20 mg/kg body weight, once a day). Bone marrow neutrophils were isolated and lysed. Total/phosphorylated Akt in cell lysates was detected by western blotting. Relative amounts of phosphorylated Akt were quantified with NIH ImageJ™ software. Data shown are means±SEM of four experiments. *p<0.05 vs. neutrophils isolated from mice treated with DMSO alone

O=[N+]([O-])c1ccc(CNc2nc(NCc3cccc(C(F)(F)F)c3)nc3nc[nH]c23)cc1 [TNP, N2-(m-(trifluoromethyl)benzyl) N6-(p-nitrobenzyl)purine]
infection-induced NPA formation in the lungs of live mice [1]: inhibited | PtdIns(3,4,5)P3-mediated cellular functions [2]: elevated | PtdIns(3,4,5)P3 signaling [2]: substantially enhanced | bactericidal activity (bacterial killing in inflamed lungs) (E. coli; TNP 20 mg/kg i.p. once a day for 10 days before E. coli instillation): much improved | edema formation (E. coli; TNP-treated mice): less edema formation | neutrophil accumulation in the inflamed lungs, BALF neutrophil counts (E. coli; TNP-treated mice): suppressed | neutrophil accumulation in the inflamed lungs, morphometric analysis of lung sections (E. coli; TNP-treated mice): suppressed | total BALF protein levels (E. coli; TNP-treated mice): decreased | pulmonary vascular permeability by lung wet-to-dry ratio (E. coli; TNP-treated mice, 24 hr after E. coli instillation): reduction | intracellular polyP levels in platelets (platelets): reduced | LPS-induced ex vivo NPA formation ([3]; neutrophils and platelets from TNP-treated mice, LPS 1 μg/mL, 2 h): inhibited | LPS-elicited polyP secretion [4]: reduced | polyP levels in human platelets (human platelets): reduced | NPA formation ([5]; TNP-treated neutrophils and untreated platelets): unaltered | LPS-induced NPA formation ([5]; human primary neutrophils and platelets treated with TNP): suppressed | PtdIns(3,4,5)P3-mediated cellular functions ([6]; mouse neutrophils treated with TNP): elevated | PtdIns(3,4,5)P3 signaling, assessed by phospho-Akt ([6]; mouse neutrophils, TNP 20 mg/kg once a day for 10 days, bone marrow neutrophils): substantially enhanced; also recorded: elevated

HOE140
LPS-induced NPA formation ([3]; neutrophils pretreated with HOE140 150 nM for 5 min): inhibited

LYS-BK
NPA formation between IP6K1-deficient platelets and neutrophils ([3]; Lys-BK 1 μM together with HKa): could not restore NPA formation

B1: MIP2: a common proinflammatory cytokine (protein, UniProt P10889 28-100, looked up)
C-X-C motif chemokine 2: AVVASELRCQCLKTLPRVDFKNIQSLSVTPPGPHCAQTEVIATLKGGQKVCLDPEAPLVQKIIQKILNKGKAN
NPA formation ([3]; MIP2 1 nM in place of LPS): failed to induce the same NPA formation
